Like-named read-outs stand apart in the source and are kept apart here.
Assays:
[1] = system: proteases (HNE, PE, V8, trypsin); test: Proteolysis in vitro, fragments by LC-MS/MS
Procedure: (§7) Peptides were resuspended in endotoxin free water at concentration of 1 mM. […] All digestions were performed in three independent experiments.

[2] = molecular target: T1, P. aeruginosa elastase (PE) (Pseudomonas aeruginosa, UniProt P14756); type: in vitro ADME; details: SDS-PAGE, digestion 0-18 h
T1 construct: purchased Calbiochem, Merk KGaA, Darmstadt, Germany
Procedure: All digestions were performed in three independent experiments.
Two μg of the peptide from each condition were loaded on 10-20% Novex Tricine pre-cast gel from Invitrogen (USA). The run was performed at 100 V for 100 min. The gel was stained by using Coomassie Brilliant blue (Invitrogen, USA). The image has been acquired with a Gel Doc Imager (Bio-Rad Laboratories, USA). Samples from three independent digestions were analysed.

whole blood = type: cell-based, human
Procedure: (§1) Fresh venous blood from healthy donors was collected in lepirudine tubes (50 μg mL-1). Then 50 μL of blood were transferred to round-bottom 96-wells plate containing 150 μL of peptides previously diluted in RPMI-1640—GlutaMAX-I without phenol red (Gibco). 1:4 diluted blood was used as control. 50 μL of blood mixed with 150 μl 5% Tween-20 were used as positive control. After 1 h incubation at 37° C. and 5% CO2, the plate was centrifuged at 800 g, 150 μL of each sample were transferred to a flat-bottom 96-wells plate and the absorbance at 450 nm was measured. The percentage of hemolysis was calculated following the formula reported below: […]
(§2) Data shown are mean values±SEM obtained from at least four independent experiments all made in triplicate. For each experiment blood from a different donor was used.

erythrocytes (RBCs) = type: cell-based, human
Procedure: as §1
To evaluate the hemolytic effect of the peptides on erythrocytes the blood was collected as reported above and centrifuged at 250 g for 10 min. Then plasma was discarded, and red blood cells were washed with 150 mM NaCl in 10 mM Tris pH 7.4 for three times. Next, the pellet was dilute 100 times with saline Tris buffer. 100 μL of this solution were added to round-bottom 96-wells plate containing 100 μL of peptides previously diluted in saline Tris buffer. After 1 h incubation at 37° C. and 5% CO2, the plate was centrifuged and the absorbance at 450 nm was measured, then the percentage of erythrocyte lysis was determined using formula reported above.
as §2

[3] = molecular target: T2, human neutrophil elastase (HNE) (Homo sapiens, UniProt P08246); type: in vitro ADME
T2 construct: purchased Calbiochem, Merk KGaA, Darmstadt, Germany
T2 sequence (P08246 30-267): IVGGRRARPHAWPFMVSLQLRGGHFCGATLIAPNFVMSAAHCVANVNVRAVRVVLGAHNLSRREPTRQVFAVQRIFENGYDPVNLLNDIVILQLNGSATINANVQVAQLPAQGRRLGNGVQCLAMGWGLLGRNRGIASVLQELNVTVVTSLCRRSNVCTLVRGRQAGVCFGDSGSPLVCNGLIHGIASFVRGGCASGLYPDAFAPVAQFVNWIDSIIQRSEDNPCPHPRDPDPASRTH
Procedure: as §7

trypsin = molecular target: T3, trypsin (Sus scrofa, UniProt P00761); type: in vitro ADME
T3 construct: purchased Promega, Madison, WI, USA
T3 sequence (P00761 9-231): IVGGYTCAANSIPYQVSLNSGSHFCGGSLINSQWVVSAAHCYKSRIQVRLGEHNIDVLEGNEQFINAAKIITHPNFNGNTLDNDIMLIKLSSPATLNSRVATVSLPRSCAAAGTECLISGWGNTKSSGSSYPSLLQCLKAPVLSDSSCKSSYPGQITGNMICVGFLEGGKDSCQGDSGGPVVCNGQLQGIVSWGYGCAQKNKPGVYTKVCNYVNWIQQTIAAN
Procedure: as §7

[4] = system: cytokines released from human blood stimulated with E. coli LPS; test: Whole blood assay, cytokines overall (TNF-α and IL-1β); type: cell-based; details: 25% blood, 100 ng mL^−1 LPS, peptide added before or together with LPS, 24 h
Procedure: (§3) Fresh venous blood was collected in the presence of lepirudin (50 μg mL^−1) from healthy donors. […] After 24 h incubation at 37° C. in 5% CO2, the plate was centrifuged for 5 min at 1000 g and then the supernatants were collected and stored at −80° C. before analysis. The experiment was performed at least 4 times by using blood from different donors each time. To evaluate the healing properties of the peptides, the blood was stimulated with 100 ng mL^−1 LPS and after 30 min incubation at 37° C. was treated with increasing doses of four peptides. […] Then the blood was stimulated with 100 ng mL^−1 of LPS.
(§4) Plasma obtained from blood experiment was used to evaluate cytokine release. Human inflammation DuoSet® ELISA Kit (R&D Systems) specific for TNF-α and IL-1β was used according to the manufacturer's instructions. Absorbance was measured at a wavelength of 450 nm. Data shown are mean values±SEM obtained from at least four independent experiments all performed in duplicate.
(§5) For each experiment blood from a different donor was used.
(§6) Plasma obtained from blood experiments was used to evaluate cytokine release. […] Absorbance was measured at a wavelength of 450 nm. […]
as §6

[5] = system: release of TNF-α in LPS stimulated blood; test: Whole blood assay with cytokine ELISA: TNF-α; type: cell-based; details: 25% human blood, 100 ng mL^−1 E. coli LPS, 24 h; read-out: Anti-inflammatory activity: Peptide concentration that reduces by 50% the release of TNF-α in LPS stimulated blood
Procedure: as §3, §4, §5, §6, §6

T1 sequence (P14756 198-498): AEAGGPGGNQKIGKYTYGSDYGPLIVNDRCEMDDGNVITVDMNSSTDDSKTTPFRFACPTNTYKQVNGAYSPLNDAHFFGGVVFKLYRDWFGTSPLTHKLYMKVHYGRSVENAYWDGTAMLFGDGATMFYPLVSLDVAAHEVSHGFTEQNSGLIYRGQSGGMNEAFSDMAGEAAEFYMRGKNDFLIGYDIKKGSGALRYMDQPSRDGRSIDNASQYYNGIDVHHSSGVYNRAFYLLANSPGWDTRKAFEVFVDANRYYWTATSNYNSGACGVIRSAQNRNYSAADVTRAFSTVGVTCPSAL

Row | Compound | protection to proteolysis / fragments released (LC-MS/MS) [1] | stability in the presence of PE enhanced up to (time) [2] | hemolytic activity in whole blood, in words (whole blood) | Hemolytic activity, lysed RBCs in whole blood (whole blood; 1 h) | hemolytic activity, RBCs or whole blood (heatmaps FIG. 4, FIG. 20a), in words (erythrocytes (RBCs)) | Hemolytic activity, lysed RBCs (erythrocytes (RBCs); 1 h) | stability in the presence of HNE enhanced up to (time) [3] | intact peptide still detected after trypsin digestion (time) (trypsin) | Hemolytic activity, lysed RBCs in whole blood (whole blood) | Hemolytic activity, lysed RBCs (erythrocytes (RBCs)) | anti-inflammatory activity in LPS-stimulated blood (TNF-α and IL-1β release), in words [4] | IC50 [5]
1 | CC[C@H](C)[C@H](NC(=O)[C@H](Cc1c[nH]c2ccccc12)NC(=O)[C@H](CCCCN)NC(=O)[C@H](CCCCN)NC(=O)[C@H](CC(C)C)NC(=O)[C@H](CCCNC(=N)N)NC(=O)[C@H](Cc1ccccc1)NC(=O)[C@@H](NC(=O)[C@@H](N)Cc1c[nH]cn1)C(C)C)C(=O)N[C@@]1(C)CCCC=CCCC[C@@](C)(C(=O)N[C@@H](CCC(N)=O)C(=O)N[C@@H](Cc2ccccc2)C(=O)NCC(=O)N[C@@H](CCC(=O)O)C(=O)O)NC(=O)[C@H]([C@@H](C)CC)NC(=O)[C@H](C(C)C)NC(=O)[C@H](CCCCN)NC1=O [sHVF18, HVFRLKKWIXKVIXQFGE] | complete protection to proteolysis | up to 18 h | significantly lower hemolytic activity | <1% | lower hemolytic activity if compared with sGKY25 | 35.4 ± 5.9% | up to 18 h | ≥ 18 h | – | – | – | –
2 | cyclo[GKYGE]YTHVFRLKKWIXKVIXQFGE [2sGKY25] | – | – | slightly lower than for sGKY25, but definitely higher than for sHVF18 | – | – | – | – | – | <1% | 49.1 ± 13.6% | better suppression of LPS-induced TNF-α and IL-1β release than GKY25 | 8 ± 2.3 µM

Source: US20250313820A1, “PEPTIDES WITH MULTIVALENT EFFECTS” (In2Cure AB, priority 2021, published 2025)
